From patent publication US20030181374A1, “Methods and compositions for stimulating bone growth using inhibitors of microtubule assembly” (priority 2002, published 2003)
Marks after values point to notes of the source that are not given here. Where a SMILES comes first, the peptide text is derived from it. The star is where a group is joined. Cbz = O=C(OCc1ccccc1)*; OtBu = CC(C)(C)O*

What was measured:
[1] = test system: ICR Swiss mice; assay: Bone volume and bone formation rates in ICR Swiss mice; assay type: in vivo; conditions: n=10
Experimental: Briefly, test compound, positive control compound, PBS, or vehicle alone is administered subcutaneously once per day for 35 days. All animals are injected with calcein nine days and two days before sacrifice (two injections of calcein administered each designated day). Weekly body weights are determined. At the end of the 35-day cycle, the animals are weighed and bled by orbital or cardiac puncture. Serum calcium, phosphate, osteocalcin, and CBCs are determined. Both leg bones (femur and tibia) and lumbar vertebrae are removed, cleaned of adhering soft tissue, and stored in 70% ethanol for evaluation, as performed by peripheral quantitative computed tomography (pQCT; Ferretti, J., Bone (1995) 17:353S-64S), dual energy X-ray absorptiometry (DEXA; Laval-Jeantet A., et al., Calcif Tissue Intl (1995) 56:14-18; J. Casez, et al., Bone and Mineral (1994) 26:61-68) and/or histomorphometry. The effect of test compounds on bone remodeling can thus be evaluated.
Microtubule Inhibitor TN-16 Increases Bone Volume and Bone Formation Rates in ICR Swiss Mice.

[2] = test system: Calvariae of one-month-old ICR Swiss mice; assay: New bone formation on calvariae (new bone width by histomorphometry); assay type: in vivo; conditions: x2d, mean ± SE, n=5
Experimental: (§1) Male ICR Swiss white mice, aged 4-6 weeks and weighing 13-26 gm, are employed, using 4-5 mice per group. The calvarial bone growth assay is performed as described in PCT application WO95/24211, incorporated by reference. Briefly, the test compound or appropriate control vehicle is injected into the subcutaneous tissue over the right calvaria of normal mice. Typically, the control vehicle is the vehicle in which the compound was solubilized, and is PBS containing 5% DMSO or is PBS containing Tween (2 μl/10 ml). The animals are sacrificed on day 14 and bone growth measured by histomorphometry. Bone samples for quantitation are cleaned from adjacent tissues and fixed in 10% buffered formalin for 24-48 hours, decalcified in 14% EDTA for 1-3 weeks, processed through graded alcohols; and embedded in paraffin wax. Three to five μm sections of the calvaria are prepared, and representative sections are selected for histomorphometric assessment of the effects on bone formation and bone resorption. Sections are measured by using a camera lucida attachment to trace directly the microscopic image onto a digitizing plate. Bone changes are measured on sections cut 200 μm apart, over 4 adjacent 1×1 mm fields on both the injected and noninjected sides of the calvaria. New bone is identified by its characteristic woven structure, and osteoclasts and osteoblasts are identified by their distinctive morphology. Histomorphometry software (OsteoMeasure, Osteometrix, Inc., Atlanta) is used to process digitizer input to determine cell counts and measure areas or perimeters.
as §1, with “In more detail, male” for “Male”, “above.” for “in PCT application WO95/24211, incorporated by reference.”
Selected compounds and appropriate controls were assayed in vitro (ex vivo) for bone formation activity (described above in “Techniques for Neonatal Mouse Calvaria Assay (in vitro)). Histomorphometrical assessments of ex vivo calvaria were carried out using an OsteoMetrics bone morphometry measurement program, according to the manufacturer's instructions. Measurements were determined using either a 10- or 20-fold objective with a standard point counting eyepiece graticule.
New bone formation was determined (using a 10× objective) by measuring the new bone area formed in one field in 3 representative sections of each bone (4 bones per group). Each measurement was carried out ½ field distance from the end of the suture. Both total bone and old bone area were measured. Data were expressed as new bone width in mm.

[3] = test system: mice; assay: In vivo assay for bone mineral density; conditions: x2d, mean ± SE, n=10
[4] = test system: BMP2 promoter-Luc; assay: High throughput screening: BMP2 promoter-luciferase reporter in 2T3-BMP-2-LUC osteoblast cells; assay type: cell-based, mouse; conditions: 2T3 cells, mean ± SE, n=4
Source text: 2, 1995, the entire contents of which are incorporated herein by reference. This assay is also described as a portion of a study of immortalized murine osteoblasts (derived from a mouse expressing a transgene composed of a BMP2 promoter driving expression of T-antigen) in Ghosh-Choudhery, N., et al., Endocrinology (1996) 137:331-39. In this study, the immortalized cells were stably transfected with a plasmid containing a luciferase reporter gene driven by a mouse BMP2 promoter (˜2736/114 bp), and responded in a dose-dependent manner to recombinant human BMP2.
Briefly, the assay utilizes cells transformed permanently or transiently with constructs in which the promoter of a bone morphogenetic protein, specifically BMP2 or BMP4, is coupled to a reporter gene, typically luciferase. These transformed cells are then evaluated for the production of the reporter gene product; compounds that activate the BMP promoter will drive production of the reporter protein, which can be readily assayed. Many thousands of compounds have been subjected to this rapid screening technique, and only a very small percentage are able to elicit a level of expression of reporter gene 5-fold greater than that produced by vehicle. […] The active compounds (“BMP promoter-active compounds” or “active compounds”) are useful in promoting bone or cartilage growth, and thus in the treatment of vertebrates in need of bone or cartilage growth.
In more detail, the 2T3-BMP-2-LUC cells, a stably transformed osteoblast cell line described in Ghosh-Choudhury et al. Endocrinology (1996) 137:331-39, referenced above, was employed. The cells were cultured using α-MEM, 10% FCS with 1% penicillin/streptomycin and 1% glutamine (“plating medium”), and were split 1:5 once per week. For the assay, the cells were resuspended in a plating medium containing 4% FCS, plated in microtiter plates at a concentration of 5×10^3 cells (in 50 μl)/well, and incubated for 24 hours at 37° C. in 5% CO2. To initiate the assay, 50 μl of the test compound or the control in DMSO was added at 2× concentration to each well, so that the final volume was 100 μl. The final serum concentration was 2% FCS, and the final DMSO concentration was 1%. Compound 59-0008 (10 μM) was used as a positive control.
The treated cells were incubated for 24 hours at 37° C. and 5% CO2. The medium was then removed, and the cells were rinsed three times with PBS. After removal of excess PBS, 25 μl of 1× cell culture lysing reagent (Promega #E153A) was added to each well and incubated for at least ten minutes. Optionally, the plates/samples could be frozen at this point. To each well was added 50 μl of luciferase substrate (Promega #E152A; 10 ml Promega luciferase assay buffer per 7 mg Promega luciferase assay substrate). Luminescence was measured on an automated 96-well luminometer, and was expressed as either picograms of luciferase activity per well or as picograms of luciferase activity per microgram of protein, as provided below, using TN-16 as the test compound.

CCC(C)C(NC(=O)OCc1ccccc1)C(=O)NC(CCC(=O)OC(C)(C)C)C(=O)NC(C)C(=O)NC(C=O)CC(C)C (stereo not drawn) [Ps-1] (Cbz-IE(OtBu)AL-aldehyde; configuration not given here)
Bone Formation Rate: BFR/BS ([1]; 1 mg/kg/d, x5, mean ± SE): 1.766 ± 0.425* μm^3/μm^2/day | Bone Volume (%, BV/TV) ([1]; 1 mg/kg/d, x5, mean ± SE): 27.13 ± 1.51 %

COc1cc2c(c(OC)c1OC)-c1ccc(OC)c(=O)cc1C(NC(C)=O)CC2 (stereo not drawn) [Colchicine, N-(5,6,7,9-Tetrahydro-1,2,3,10-tetra-methoxy-9-oxobenzo[a]heptalen-7-yl) acetamide]
New Bone Width ([2]; 0.1 mg/kg/d): 0.225 ± 0.013 mm | New Bone Width ([2]; 1.0 mg/kg/d): 0.305 ± 0.020 mm

CC(Nc1ccccc1)=C1C(=O)NC(Cc2ccccc2)C1=O (stereo not drawn) [TN-16, 3-(1-Anilinoethylidene)-5-benzylpyrrolidine-2,4-dione]
Bone Formation Rate: BFR/BS ([1]; 2 mg/kg/d, x2, mean ± SE): 0.815 ± 0.129* μm^3/μm^2/day | Bone Volume (%, BV/TV) ([1]; 2 mg/kg/d, x2, mean ± SE): 23.42 ± 3.13 % | Bone Formation Rate: BFR/BS ([1]; 4 mg/kg/d, x2, mean ± SE): 1.130 ± 0.293* μm^3/μm^2/day | Bone Volume (%, BV/TV) ([1]; 4 mg/kg/d, x2, mean ± SE): 27.21 ± 2.14 % | Bone Formation Rate: BFR/BS ([1]; 8 mg/kg/d, x2, mean ± SE): 1.231 ± 0.181** μm^3/μm^2/day | Bone Volume (%, BV/TV) ([1]; 8 mg/kg/d, x2, mean ± SE): 25.44 ± 1.29 % | New Bone Width ([2]; 2 mg/kg/d): 0.120 ± 0.016 mm | New Bone Width ([2]; 4 mg/kg/d): 0.376 ± 0.029 mm | New Bone Width ([2]; 8 mg/kg/d): 0.525 ± 0.035 mm | BMD ([3]; Calvariae (1-month-old mice), 4 mg/kg/d): 26.0 ± 0.7 mg/cm^2 | BMD ([3]; Calvariae (1-month-old mice), 8 mg/kg/d): 31.3 ± 0.5 mg/cm^2 | BMD ([3]; Femora (3-month-old mice), 2 mg/kg/d): 90.1 ± 2.2 mg/cm^2 | BMD ([3]; Femora (3-month-old mice), 4 mg/kg/d): 100.9 ± 1.6 mg/cm^2 | BMD ([3]; Femora (3-month-old mice), 8 mg/kg/d): 102.1 ± 1.5 mg/cm^2 | BMD ([3]; Tibiae (3-month-old mice), 2 mg/kg/d): 78.0 ± 2.2 mg/cm^2 | BMD ([3]; Tibiae (3-month-old mice), 4 mg/kg/d): 84.5 ± 1.0 mg/cm^2 | BMD ([3]; Tibiae (3-month-old mice), 8 mg/kg/d): 85.5 ± 0.8 mg/cm^2 | Luciferase Activity (Fold Change) (BMP2 promoter-Luc) ([4]; TN-16 0.16 μM): 2.4 ± 0.40 Fold Change | Luciferase Activity (Fold Change) (BMP2 promoter-Luc) ([4]; TN-16 0.31 μM): 4.0 ± 0.09 Fold Change | Luciferase Activity (Fold Change) (BMP2 promoter-Luc) ([4]; TN-16 0.61 μM): 4.8 ± 0.50 Fold Change | Luciferase Activity (Fold Change) (BMP2 promoter-Luc) ([4]; TN-16 1.25 μM): 5.6 ± 0.12 Fold Change | Luciferase Activity (Fold Change) (BMP2 promoter-Luc) ([4]; TN-16 2.5 μM): 6.2 ± 0.30 Fold Change

COC(=O)Nc1nc2cc(C(=O)c3cccs3)ccc2[nH]1 [Nocodazole, Methyl-[5-(2-thienylcarbonyl)-1 H-benzimidazole-2-yl]-carbamate]
New Bone Width ([2]; 1.5 mg/kg/d): 0.231 ± 0.027 mm
